Results as given in the supplement of paper PMC10883282.
Where a name gives a salt, the structure may show the parent alone. ± gives the standard deviation of the averaged measurements.

Experiments:
Assay in all cases: relative viability vs DMSO control (72 h) (fraction); higher = more viable cells
A204 = tested on: A204
Outline: (§1)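 After seeding at densities set for 80–90% confluence in 384-well plates, sarcoma cell lines waited 24 h before 2.5 µl of serially diluted compound was added. Source plates held 10 mM down to 0.0002 mM. Plates were incubated 72 h at 37 °C with 5% CO2, with 0.1% DMSO vehicle and a 5 µM positive control, and relative viability was taken from ATPLite as percent growth averaged over up to triplicate wells, with 1 set as full and 0 as none.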

G401 = tested on: G401
Outline: as §1

HS729 = tested on: HS729
Outline: as §1

KHOS-NP = tested on: KHOS-NP
Outline: as §1

MES-SA = tested on: MES-SA
Outline: as §1

RD = tested on: RD
Outline: as §1

SK-ES-1 = tested on: SK-ES-1
Outline: as §1

SK-LMS-1 = tested on: SK-LMS-1
Outline: as §1

SW684 = tested on: SW684
Outline: as §1

SW872 = tested on: SW872
Outline: as §1

SYO-1 = tested on: SYO-1
Outline: as §1

VA-ES-BJ = tested on: VA-ES-BJ
Outline: as §1

C=C1C[C@@H]2CC[C@@]34C[C@H]5O[C@H]6[C@@H](O3)[C@H]3O[C@H](CC[C@@H]3O[C@H]6[C@H]5O4)CC(=O)C[C@@H]3[C@@H](OC)[C@@H](C[C@H](O)CN)O[C@H]3C[C@H]3O[C@@H](CC[C@@H]1O2)C[C@@H](C)C3=C [Eribulin Mesylate]
relative viability (A204; 1.37 pM): 1.12 ± 0.048 | relative viability (A204; 4.1 pM): 1.12 ± 0.015 | relative viability (A204; 12.3 pM): 1.09 ± 0.032 | relative viability (A204; 37 pM): 0.68 ± 0.098 | relative viability (A204; 0.00011 µM): 0.596 ± 0.031 | relative viability (A204; 0.00033 µM): 0.475 ± 0.018 | relative viability (A204; 0.001 µM): 0.414 ± 0.039 | relative viability (A204; 0.003 µM): 0.329 ± 0.038 | relative viability (A204; 0.009 µM): 0.2412 ± 0.0022 | relative viability (A204; 0.027 µM): 0.224 ± 0.0057 | relative viability (A204; 460 fM): 1.11 ± 0.047 | relative viability (G401; 1.37 pM): 1.08 ± 0.022 | relative viability (G401; 4.1 pM): 1.06 ± 0.04 | relative viability (G401; 12.3 pM): 1.06 ± 0.027 | relative viability (G401; 37 pM): 0.814 ± 0.14 | relative viability (G401; 0.00011 µM): 0.736 ± 0.081 | relative viability (G401; 0.00033 µM): 0.604 ± 0.049 | relative viability (G401; 0.001 µM): 0.513 ± 0.0063 | relative viability (G401; 0.003 µM): 0.452 ± 0.011 | relative viability (G401; 0.009 µM): 0.417 ± 0.011 | relative viability (G401; 0.027 µM): 0.366 ± 0.0054 | relative viability (G401; 460 fM): 1.05 ± 0.025 | relative viability (HS729; 1.37 pM): 1.04 ± 0.036 | relative viability (HS729; 4.1 pM): 0.987 ± 0.035 | relative viability (HS729; 12.3 pM): 0.965 ± 0.058 | relative viability (HS729; 37 pM): 0.874 ± 0.061 | relative viability (HS729; 0.00011 µM): 0.835 ± 0.035 | relative viability (HS729; 0.00033 µM): 0.756 ± 0.019 | relative viability (HS729; 0.001 µM): 0.6663 ± 0.0064 | relative viability (HS729; 0.003 µM): 0.583 ± 0.015 | relative viability (HS729; 0.009 µM): 0.519 ± 0.018 | relative viability (HS729; 0.027 µM): 0.48 ± 0.0042 | relative viability (HS729; 460 fM): 1.08 ± 0.043 | relative viability (KHOS-NP; 1.37 pM): 1.11 ± 0.015 | relative viability (KHOS-NP; 4.1 pM): 1.119 ± 0.0095 | relative viability (KHOS-NP; 12.3 pM): 1.113 ± 0.0096 | relative viability (KHOS-NP; 37 pM): 1.11 ± 0.026 | relative viability (KHOS-NP; 0.00011 µM): 1.1 ± 0.018 | relative viability (KHOS-NP; 0.00033 µM): 1.05 ± 0.044 | relative viability (KHOS-NP; 0.001 µM): 0.922 ± 0.043 | relative viability (KHOS-NP; 0.003 µM): 0.669 ± 0.079 | relative viability (KHOS-NP; 0.009 µM): 0.479 ± 0.032 | relative viability (KHOS-NP; 0.027 µM): 0.438 ± 0.02 | relative viability (KHOS-NP; 460 fM): 1.1 ± 0.035 | relative viability (MES-SA; 1.37 pM): 1.01 ± 0.021 | relative viability (MES-SA; 4.1 pM): 0.996 ± 0.018 | relative viability (MES-SA; 12.3 pM): 0.973 ± 0.011 | relative viability (MES-SA; 37 pM): 0.425 ± 0.018 | relative viability (MES-SA; 0.00011 µM): 0.472 ± 0.049 | relative viability (MES-SA; 0.00033 µM): 0.311 ± 0.0072 | relative viability (MES-SA; 0.001 µM): 0.254 ± 0.017 | relative viability (MES-SA; 0.003 µM): 0.178 ± 0.0044 | relative viability (MES-SA; 0.009 µM): 0.122 ± 0.0053 | relative viability (MES-SA; 0.027 µM): 0.109 ± 0.0048 | relative viability (MES-SA; 460 fM): 0.996 ± 0.016 | relative viability (RD; 1.37 pM): 1.069 ± 0.0092 | relative viability (RD; 4.1 pM): 1.041 ± 0.01 | relative viability (RD; 12.3 pM): 0.9352 ± 0.005 | relative viability (RD; 37 pM): 0.683 ± 0.023 | relative viability (RD; 0.00011 µM): 0.442 ± 0.02 | relative viability (RD; 0.00033 µM): 0.268 ± 0.016 | relative viability (RD; 0.001 µM): 0.254 ± 0.014 | relative viability (RD; 0.003 µM): 0.247 ± 0.0058 | relative viability (RD; 0.009 µM): 0.273 ± 0.0059 | relative viability (RD; 0.027 µM): 0.254 ± 0.015 | relative viability (RD; 460 fM): 1.07 ± 0.041 | relative viability (SK-ES-1; 1.37 pM): 1.05 ± 0.065 | relative viability (SK-ES-1; 4.1 pM): 1.06 ± 0.11 | relative viability (SK-ES-1; 12.3 pM): 0.861 ± 0.078 | relative viability (SK-ES-1; 37 pM): 0.0486 ± 0.0039 | relative viability (SK-ES-1; 0.00011 µM): 0.0799 ± 0.011 | relative viability (SK-ES-1; 0.00033 µM): 0.0234 ± 0.0067 | relative viability (SK-ES-1; 0.001 µM): 0.0171 ± 0.0017 | relative viability (SK-ES-1; 0.003 µM): 0.0147 ± 0.00035 | relative viability (SK-ES-1; 0.009 µM): 0.0166 ± 0.0027 | relative viability (SK-ES-1; 0.027 µM): 0.019 ± 0.0013 | relative viability (SK-ES-1; 460 fM): 1.07 ± 0.088 | relative viability (SK-LMS-1; 1.37 pM): 0.971 ± 0.049 | relative viability (SK-LMS-1; 4.1 pM): 0.952 ± 0.048 | relative viability (SK-LMS-1; 12.3 pM): 0.909 ± 0.018 | relative viability (SK-LMS-1; 37 pM): 0.819 ± 0.02 | relative viability (SK-LMS-1; 0.00011 µM): 0.708 ± 0.048 | relative viability (SK-LMS-1; 0.00033 µM): 0.52 ± 0.056 | relative viability (SK-LMS-1; 0.001 µM): 0.482 ± 0.016 | relative viability (SK-LMS-1; 0.003 µM): 0.392 ± 0.016 | relative viability (SK-LMS-1; 0.009 µM): 0.359 ± 0.018 | relative viability (SK-LMS-1; 0.027 µM): 0.308 ± 0.021 | relative viability (SK-LMS-1; 460 fM): 0.996 ± 0.049 | relative viability (SW684; 1.37 pM): 1.16 ± 0.054 | relative viability (SW684; 4.1 pM): 1.13 ± 0.034 | relative viability (SW684; 12.3 pM): 1.11 ± 0.03 | relative viability (SW684; 37 pM): 0.994 ± 0.028 | relative viability (SW684; 0.00011 µM): 1 ± 0.029 | relative viability (SW684; 0.00033 µM): 0.865 ± 0.035 | relative viability (SW684; 0.001 µM): 0.806 ± 0.051 | relative viability (SW684; 0.003 µM): 0.812 ± 0.023 | relative viability (SW684; 0.009 µM): 0.822 ± 0.031 | relative viability (SW684; 0.027 µM): 0.828 ± 0.08 | relative viability (SW684; 460 fM): 1.15 ± 0.029 | relative viability (SW872; 1.37 pM): 1.08 ± 0.049 | relative viability (SW872; 4.1 pM): 1.09 ± 0.045 | relative viability (SW872; 12.3 pM): 1.06 ± 0.027 | relative viability (SW872; 37 pM): 0.946 ± 0.029 | relative viability (SW872; 0.00011 µM): 0.869 ± 0.025 | relative viability (SW872; 0.00033 µM): 0.8125 ± 0.003 | relative viability (SW872; 0.001 µM): 0.686 ± 0.028 | relative viability (SW872; 0.003 µM): 0.567 ± 0.018 | relative viability (SW872; 0.009 µM): 0.4921 ± 0.0027 | relative viability (SW872; 0.027 µM): 0.429 ± 0.045 | relative viability (SW872; 460 fM): 1.1 ± 0.035 | relative viability (SYO-1; 1.37 pM): 0.915 ± 0.042 | relative viability (SYO-1; 4.1 pM): 0.709 ± 0.059 | relative viability (SYO-1; 12.3 pM): 0.513 ± 0.011 | relative viability (SYO-1; 37 pM): 0.388 ± 0.01 | relative viability (SYO-1; 0.00011 µM): 0.323 ± 0.021 | relative viability (SYO-1; 0.00033 µM): 0.319 ± 0.0053 | relative viability (SYO-1; 0.001 µM): 0.312 ± 0.0037 | relative viability (SYO-1; 0.003 µM): 0.354 ± 0.015 | relative viability (SYO-1; 0.009 µM): 0.365 ± 0.034 | relative viability (SYO-1; 0.027 µM): 0.345 ± 0.0051 | relative viability (SYO-1; 460 fM): 1.01 ± 0.046 | relative viability (VA-ES-BJ; 1.37 pM): 1.06 ± 0.018 | relative viability (VA-ES-BJ; 4.1 pM): 1 ± 0.012 | relative viability (VA-ES-BJ; 12.3 pM): 0.901 ± 0.012 | relative viability (VA-ES-BJ; 37 pM): 0.72 ± 0.011 | relative viability (VA-ES-BJ; 0.00011 µM): 0.474 ± 0.018 | relative viability (VA-ES-BJ; 0.00033 µM): 0.391 ± 0.012 | relative viability (VA-ES-BJ; 0.001 µM): 0.437 ± 0.021 | relative viability (VA-ES-BJ; 0.003 µM): 0.359 ± 0.012 | relative viability (VA-ES-BJ; 0.009 µM): 0.295 ± 0.0034 | relative viability (VA-ES-BJ; 0.027 µM): 0.244 ± 0.012 | relative viability (VA-ES-BJ; 460 fM): 1.08 ± 0.023
